8 molecules from patent US9643999B2 (Bristol-Myers Squibb Company, priority 2012, dated 2017) can be followed below.

The term EC50 denotes the concentration that produces a half-maximal response.

Like-named read-outs stand apart in the source and are kept apart here.

The test system of one experiment is HCV genotype 1a replicon. The experiment is described as follows: HCV replicon luciferase reporter assay, genotype 1a (LE_1a). It is filed as cell-based. The note with it: Hepatitis C virus, 72 h, HUH-7 cells, genotype 1a H77 replicon, 3 days incubation, Renilla luciferase. (In general: In antiviral work, replicon cells carry a viral genome segment that copies itself.)

For the next experiment, the system named is HCV genotype 1b replicon. The experiment is described as follows: HCV replicon luciferase reporter assay, genotype 1b (LE_1b). In kind it is cell-based. Particulars: Hepatitis C virus, 72 h, HUH-7 cells, genotype 1b (Con1) replicon, 3 days incubation, Renilla luciferase. A digest of the protocol: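 HUH-7 cells stably carrying Renilla luciferase replicons (1b Con1 with S1179I; 1a H77 with P1496L and S2204I), 3.0×10^3 cells/well in 4% FCS, 0.5% DMSO, twenty-point 3-fold titration. After 3 days at 37° C., luminescence read with EnduRen (7.5 μM final, 2 hrs). EC50 from four-parameter logistic fit; CC50 from multiplexed Cell Titer-Blue (8 hrs).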

As for `CC[C@@H]1C[C@H](C)CC/C=C\[C@@H]2C[C@@]2(C(=O)NS(=O)(=O)C2(C)CC2)NC(=O)[C@@H]2C[C@@H](Oc3cc(-n4ccc(C(C)C)n4)nc4cc(OC)ccc34)CN2C(=O)[C@H]1NC(=O)OC(C)(C)C` [Compound 4294], the EC50 with HCV genotype 1a replicon (read-out: LE_1a (EC50)) was 0.85 nM; with HCV genotype 1a replicon (read-out: LE_1a (EC50, range)), 0.51 to 1 nM; in the experiment with HCV genotype 1b replicon (read-out: LE_1b (EC50)) it was 0.89 nM; with HCV genotype 1b replicon (read-out: LE_1b (EC50, range)), 0.51 to 1 nM.

For the molecule `[2H]C([2H])([2H])C1(S(=O)(=O)NC(=O)[C@@]23C[C@H]2/C=C\CC[C@@H](C)C[C@@H](CC)[C@H](NC(=O)OC(C)(C)C(F)F)C(=O)N2C[C@H](Oc4ncc(OC)c5ccccc45)C[C@H]2C(=O)N3)CC1` [Compound 5549], the EC50 in the experiment with HCV genotype 1a replicon (read-out: LE_1a (EC50, range)) lay in the range of 0.51 to 1 nM; in the experiment with HCV genotype 1b replicon (read-out: LE_1b (EC50, range)) it was 0.51 to 1 nM.

Take `C[C@@H]1CC/C=C\[C@@H]2C[C@@]2(C(=O)NS(=O)(=O)C2(C)CC2)NC(=O)[C@@H]2C[C@@H](Oc3nc4nncn4c4ccccc34)CN2C(=O)[C@@H](NC(=O)OC(C)(C)C(F)(F)F)[C@H](C)C1` [Compound 6125]: the EC50 in the experiment on HCV genotype 1a replicon (read-out: LE_1a (EC50, range)) is 35 to 145 nM; in the experiment with HCV genotype 1b replicon (read-out: LE_1b (EC50, range)), 35 to 145 nM.

`CC[C@@H]1C[C@H](C)CC/C=C\[C@@H]2C[C@@]2(C(=O)NS(=O)(=O)C2CC2)NC(=O)[C@@H]2C[C@@H](Oc3ncc(-c4nc(C(C)(C)C)cs4)c4cc(OC)ccc34)CN2C(=O)[C@H]1NC(=O)OC(C)(C)C` [Compound 4280, tert-butyl((2R,6S,7R,9R,13aS,14aR,16aS,Z)-2-((4-(4-(tert-butyl)thiazol-2-yl)-6-methoxyisoquinolin-1-yl)oxy)-14a-((cyclopropylsulfonyl)carbamoyl)-7-ethyl-9-methyl-5,16-dioxo-1,2,3,5,6,7,8,9,10,11,13a,14,14a,15,16,16a-hexadecahydrocyclopropa[e]pyrrolo[1,2-a][1,4]diazacyclopentadecin-6-yl)carbamate]: the EC50 is 5.01 to 35 nM in the experiment on HCV genotype 1a replicon (read-out: LE_1a (EC50, range)) and 1.01 to 5 nM in the experiment with HCV genotype 1b replicon (read-out: LE_1b (EC50, range)).

On to `COc1ccc2c(O[C@@H]3C[C@H]4C(=O)N[C@]5(C(=O)NS(=O)(=O)C6(C)CC6)C[C@H]5/C=C\CC[C@@H](C)C[C@@H](C)[C@H](NC(=O)OC(C)(C)C(F)(F)F)C(=O)N4C3)cc(-n3ccc(C(F)(F)F)n3)nc2c1` [Compound 4301], for which the EC50 with HCV genotype 1a replicon (read-out: LE_1a (EC50, range)) is 0.51 to 1 nM; with HCV genotype 1b replicon (read-out: LE_1b (EC50, range)), 0.51 to 1 nM.

For `C[C@@H]1CC/C=C\[C@@H]2C[C@@]2(C(=O)NS(=O)(=O)C2(C)CC2)NC(=O)[C@@H]2C[C@@H](Oc3nccc4c5c(ccc34)CCO5)CN2C(=O)[C@@H](NC(=O)OC(C)(C)C)[C@H](C)C1` [Compound 5491, tert-butyl((2R,6S,7R,9R,13aS,14aR,16aS,Z)-2-((2,3-dihydrofuro[2,3-f]isoquinolin-6-yl)oxy)-7,9-dimethyl-14a-(((1-methylcyclopropyl)sulfonyl)carbamoyl)-5,16-dioxo-1,2,3,5,6,7,8,9,10,11,13a,14,14a,15,16,16a-hexadecahydrocyclopropa[e]pyrrolo[1,2-a][1,4]diazacyclopentadecin-6-yl)carbamate], the EC50 is 5.41 nM in the experiment on HCV genotype 1a replicon (read-out: LE_1a (EC50)); 5.01 to 35 nM in the experiment with HCV genotype 1a replicon (read-out: LE_1a (EC50, range)); 2.57 nM in the experiment with HCV genotype 1b replicon (read-out: LE_1b (EC50)); 1.01 to 5 nM in the experiment with HCV genotype 1b replicon (read-out: LE_1b (EC50, range)).

Regarding `CC[C@@H]1C[C@H](C)CC/C=C\[C@@H]2C[C@@]2(C(=O)NS(=O)(=O)C2(C)CC2)NC(=O)[C@@H]2C[C@@H](Oc3ncc(N(C)C(=O)c4ccccc4)c4cc(OC)ccc34)CN2C(=O)[C@H]1NC(=O)OC(C)(C)C(F)(F)F` [Compound 4248], the EC50 in the experiment with HCV genotype 1a replicon (read-out: LE_1a (EC50, range)) fell in the range of 1.01 to 5 nM; in the experiment with HCV genotype 1b replicon (read-out: LE_1b (EC50, range)) it was 1.01 to 5 nM.

Consider `CC[C@@H]1C[C@H](C)CC/C=C\[C@@H]2C[C@@]2(C(=O)NS(=O)(=O)C2CC2)NC(=O)[C@@H]2C[C@@H](Oc3nc4cc(OC)ccc4nc3C3CC3)CN2C(=O)[C@H]1NC(=O)OC(C)(C)C(F)(F)F` [Compound 4309], for which the concentration giving a half-maximal response (EC50) is 3.51 nM in the experiment with HCV genotype 1a replicon (read-out: LE_1a (EC50)); 1.01 to 5 nM with HCV genotype 1a replicon (read-out: LE_1a (EC50, range)); 2.31 nM with HCV genotype 1b replicon (read-out: LE_1b (EC50)); 1.01 to 5 nM with HCV genotype 1b replicon (read-out: LE_1b (EC50, range)).
